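Assay format: 96-well plates, 48-hour exposure. TGI marks complete inhibition of growth.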
What was measured:
Assay in all cases: DTP human tumour cell line panel, 48 h
[1] = test system: EKVX NSCLC
[2] = test system: SK-OV-3 ovarian
[3] = test system: SNB-78 CNS
[4] = test system: ACHN renal
[5] = test system: 786-0 renal
[6] = test system: OVCAR-5 ovarian
[7] = test system: NCI-H460 lung
[8] = test system: KM12 colon
[9] = test system: SN12C renal
[10] = test system: DLD-1 colon
[11] = test system: A549 NSCLC
[12] = test system: U251 CNS
[13] = test system: HT29 colon
[14] = test system: HOP-18 NSCLC
[15] = test system: RPMI-8226 leukemia
[16] = test system: TK-10 renal
[17] = test system: SNB-75 CNS
[18] = test system: SW-620 colon
[19] = test system: UO-31 renal
[20] = test system: HL-60(TB) leukemia
[21] = test system: NCI-H23 lung
[22] = test system: MALME-3M melanoma
[23] = test system: OVCAR-3 ovarian
[24] = test system: UACC-257 melanoma
[25] = test system: MOLT-4 leukemia
[26] = test system: K-562 leukemia
[27] = test system: SF-295 CNS
[28] = test system: NCI-H226 lung
[29] = test system: LXFL 529 NSCLC
[30] = test system: RXF-631 renal
[31] = test system: RXF 393 renal
[32] = test system: DMS 114 small cell lung
[33] = test system: KM20L2 colon
[34] = test system: SNB-19 CNS
[35] = test system: SF-268 CNS
[36] = test system: SR leukemia
[37] = test system: DMS 273 small cell lung
[38] = test system: HOP-62 NSCLC
[39] = test system: IGROV1 ovarian
[40] = test system: UACC-62 melanoma
[41] = test system: COLO 205 colon
[42] = test system: OVCAR-8 ovarian
[43] = test system: SK-MEL-2 melanoma
[44] = test system: M14 melanoma
[45] = test system: HCT-15 colon
[46] = test system: HCT-116 colon
[47] = test system: SF-539 CNS
[48] = test system: LOX IMVI melanoma
[49] = test system: NCI-H522 lung
[50] = test system: CAKI-1 renal
[51] = test system: SK-MEL-5 melanoma
[52] = test system: HOP-92 NSCLC
[53] = test system: A498 renal
[54] = test system: CCRF-CEM leukemia
[55] = test system: OVCAR-4 ovarian
[56] = test system: HCC-2998 colon
[57] = test system: SK-MEL-28 melanoma
[58] = test system: M19-MEL melanoma
[59] = test system: XF 498 CNS

## COc1ccc(C(=C[N+](=O)[O-])c2ccc(OC)cc2)cc1
[1]
  TGI: > 100 µM
[2]
  TGI: 36.2 µM
[3]
  TGI: > 84.5 µM
[4]
  TGI: > 100 µM
[5]
  TGI: > 89 µM
[6]
  TGI: 99.5 µM
[7]
  TGI: 54.7 µM
[8]
  TGI: > 46.5 µM
[9]
  TGI: > 100 µM
[10]
  TGI: > 84.3 µM
[11]
  TGI: > 100 µM
[12]
  TGI: 17.9 µM
[13]
  TGI: 20.1 µM
[14]
  TGI: > 100 µM
[15]
  TGI: 26.3 µM
[16]
  TGI: 99.3 µM
[17]
  TGI: 30.3 µM
[18]
  TGI: > 73.3 µM
[19]
  TGI: 88.9 µM
[20]
  TGI: > 34.7 µM
[21]
  TGI: > 57.1 µM
[22]
  TGI: > 100 µM
[23]
  TGI: 46.1 µM
[24]
  TGI: > 92.6 µM
[25]
  TGI: 29.3 µM
[26]
  TGI: > 100 µM
[27]
  TGI: 25.1 µM
[28]
  TGI: 52.4 µM
[29]
  TGI: > 100 µM
[30]
  TGI: > 100 µM
[31]
  TGI: 49.1 µM
[32]
  TGI: 23.7 µM
[33]
  TGI: 26.9 µM
[34]
  TGI: > 94.4 µM
[35]
  TGI: > 100 µM
[36]
  TGI: 45.1 µM
[37]
  TGI: 22.9 µM
[38]
  TGI: 50.6 µM
[39]
  TGI: > 63.3 µM
[40]
  TGI: > 100 µM
[41]
  TGI: 15.5 µM
[42]
  TGI: 37.9 µM
[43]
  TGI: 33.3 µM
[44]
  TGI: 41.8 µM
[45]
  TGI: > 100 µM
[46]
  TGI: 27.8 µM
[47]
  TGI: 29.3 µM
[48]
  TGI: 46.4 µM
[49]
  TGI: 32.7 µM
[50]
  TGI: > 100 µM
[51]
  TGI: > 100 µM
[52]
  TGI: > 100 µM
[53]
  TGI: 41.3 µM
[54]
  TGI: > 92.7 µM
[55]
  TGI: > 100 µM
[56]
  TGI: 31.5 µM
[57]
  TGI: > 100 µM

## CC1NS(=O)(=O)N(C)C1=O (stereo unspecified)
[2]
  TGI: > 100 µM
[3]
  TGI: > 100 µM
[4]
  TGI: > 100 µM
[6]
  TGI: > 100 µM
[8]
  TGI: > 100 µM
[9]
  TGI: > 100 µM
[58]
  TGI: > 100 µM
[10]
  TGI: > 100 µM
[11]
  TGI: > 100 µM
[12]
  TGI: > 100 µM
[15]
  TGI: > 100 µM
[16]
  TGI: > 100 µM
[17]
  TGI: > 100 µM
[18]
  TGI: > 100 µM
[20]
  TGI: > 100 µM
[21]
  TGI: > 100 µM
[22]
  TGI: > 100 µM
[23]
  TGI: > 100 µM
[24]
  TGI: > 100 µM
[25]
  TGI: > 100 µM
[26]
  TGI: > 100 µM
[27]
  TGI: > 100 µM
[28]
  TGI: > 100 µM
[29]
  TGI: > 100 µM
[30]
  TGI: > 100 µM
[31]
  TGI: > 100 µM
[32]
  TGI: > 100 µM
[35]
  TGI: > 100 µM
[36]
  TGI: > 100 µM
[37]
  TGI: > 100 µM
[38]
  TGI: > 100 µM
[39]
  TGI: > 100 µM
[40]
  TGI: > 100 µM
[42]
  TGI: > 100 µM
[43]
  TGI: > 100 µM
[44]
  TGI: > 100 µM
[45]
  TGI: > 100 µM
[46]
  TGI: > 100 µM
[47]
  TGI: > 100 µM
[48]
  TGI: > 100 µM
[49]
  TGI: > 100 µM
[50]
  TGI: > 100 µM
[51]
  TGI: > 100 µM
[52]
  TGI: > 100 µM
[54]
  TGI: > 100 µM
[55]
  TGI: > 100 µM
[56]
  TGI: > 100 µM
[57]
  TGI: > 100 µM
[59]
  TGI: > 100 µM
